Tests used:
[1] = test system: Staphylococcus aureus 25923 (susceptible); assay: Microdroplet culture with D2O labeling, average mass of PG 32:0 by MALDI-MS (Orbitrap and Biotyper); format: cell-based; conditions: increasing methicillin concentration, 20% D2O, 4 hours
Description: (§1) The disclosed method was tested using the Bruker Biotyper and the results were compared to data using the method that was previously established on an Orbitrap mass spectrometer. A common cell membrane lipid, phosphatidylglycerol (PG) 32:0 was used as an indicator. Since a higher average mass is indicative of more growth, a reduced average mass indicates susceptibility to methicillin. The Biotyper is an economical and more accessible instrument but has less resolution and more error in the measurements. However, data from the Biotyper results in the same conclusions when compared to data from the Orbitrap. […]
(§2) μFocus samples were analyzed in negative ion mode using an Orbitrap Q Exactive HF mass spectrometer (Thermo Scientific, San Jose, CA) with a Spectroglyph MALDI source (Spectroglyph, Kennewick, WA) equipped with a 349 nm laser (Explorer One; Spectra Physics, Milpitas, CA) using a 500 Hz repetition rate and ˜4 μJ per shot. Samples were analyzed at 120,000 resolving power at m/z 200. Spots were analyzed using 60 μm spatial resolution to ensure a good representation of the sample and resulting spectra were averaged in Xcalibur. Masslists from averaged spectra were then exported to .csv files and average mass of membrane lipids were calculated using a custom Python script. […]

[2] = test system: methicillin-resistant Staphylococcus aureus 33591; assay: as above; format: cell-based; conditions: range of methicillin concentrations, 20% D2O, 4 hours
Description: as §1, §2

Compound: COc1cccc(OC)c1C(=O)N[C@@H]1C(=O)N2[C@@H]1SC(C)(C)[C@@H]2C(=O)O [methicillin]
- effect on average mass of PG 32:0 [1]: constant decrease
- effect on average mass of PG 32:0 [2]: does not decrease the average mass significantly

— patent US20230332203A1, “RAPID ANTIBIOTIC SUSCEPTIBILITY TESTING” (IOWA STATE UNIVERSITY RESEARCH FOUNDATION, INC., priority 2022, published 2023)
